Experimental findings from ChEMBL document CHEMBL3046394, “Conyza canadensis (L.) Cronquist response to pre-plant application of residual herbicides in cotton (Gossypium hirsutum L.)” (Crop Prot, 2009) are described below.

The test system of one data set is Gossypium hirsutum. The data set can be described thus: Toxicity in Gossypium hirsutum (cotton) assessed as formation of injury to cotton. As to conditions: in vivo. The class given is organism-based.
Data set [1] has as its system Erigeron canadensis. Description: Herbicidal activity against glyphosate-resistant Conyza canadensis (horseweed) assessed as residual control at 1680 g a.i./ha treated during autumn and spring measured 8 weeks after treatment. The class given is functional.
In data set [2] the test system is Erigeron canadensis. Description: Herbicidal activity against glyphosate-resistant Conyza canadensis (horseweed) assessed as residual control at 1680 g a.i./ha treated during autumn and spring measured 6 weeks after treatment. Type of data set: functional.
The subject of data set [3] is Erigeron canadensis. The data set can be described thus: Herbicidal activity against glyphosate-resistant Conyza canadensis (horseweed) assessed as residual control at 1680 g a.i./ha treated during autumn and spring measured 4 weeks after treatment. The class given is functional.
Data set [4] concerns Erigeron canadensis. The data set can be described thus: Herbicidal activity against glyphosate-resistant Conyza canadensis (horseweed) assessed as residual control at 1120 g a.i./ha treated during autumn and spring measured 8 weeks after treatment. Type of data set: functional.
Data set [5] deals with Erigeron canadensis. Description: Herbicidal activity against glyphosate-resistant Conyza canadensis (horseweed) assessed as residual control at 1120 g a.i./ha treated during autumn and spring measured 6 weeks after treatment. Type of data set: functional.
Data set [6] concerns Erigeron canadensis. The data set can be described thus: Herbicidal activity against glyphosate-resistant Conyza canadensis (horseweed) assessed as residual control at 1120 g a.i./ha treated during autumn and spring measured 4 weeks after treatment. Type of data set: functional.
The test system of data set [7] is Erigeron canadensis. The data set can be described thus: Herbicidal activity against glyphosate-resistant Conyza canadensis (horseweed) assessed as residual control at 71 g a.i./ha treated during autumn and spring measured 8 weeks after treatment. Type of data set: functional.
The test system of data set [8] is Erigeron canadensis. Description: Herbicidal activity against glyphosate-resistant Conyza canadensis (horseweed) assessed as residual control at 71 g a.i./ha treated during autumn and spring measured 6 weeks after treatment. The class given is functional.
Data set [9] has as its system Erigeron canadensis. Description: Herbicidal activity against glyphosate-resistant Conyza canadensis (horseweed) assessed as residual control at 71 g a.i./ha treated during autumn and spring measured 4 weeks after treatment. Type of data set: functional.
For data set [10], the system named is Erigeron canadensis. Description: Herbicidal activity against glyphosate-resistant Conyza canadensis (horseweed) assessed as residual control at 1400 g a.i./ha treated during autumn and spring measured 8 weeks after treatment. Type of data set: functional.
The test system of data set [11] is Erigeron canadensis. Description: Herbicidal activity against glyphosate-resistant Conyza canadensis (horseweed) assessed as residual control at 1400 g a.i./ha treated during autumn and spring measured 6 weeks after treatment. Type of data set: functional.
Data set [12] has as its system Erigeron canadensis. The data set can be described thus: Herbicidal activity against glyphosate-resistant Conyza canadensis (horseweed) assessed as residual control at 1400 g a.i./ha treated during autumn and spring measured 4 weeks after treatment. Type of data set: functional.
Data set [13] has as its system Erigeron canadensis. The data set can be described thus: Herbicidal activity against glyphosate-resistant Conyza canadensis (horseweed) assessed as residual control at 420 g a.i./ha treated during autumn and spring measured 4 weeks after treatment. Type of data set: functional.
The test system of data set [14] is Erigeron canadensis. Description: Herbicidal activity against glyphosate-resistant Conyza canadensis (horseweed) assessed as residual control at 420 g a.i./ha treated during autumn and spring measured 8 weeks after treatment. The class given is functional.
Data set [15] deals with Erigeron canadensis. The data set can be described thus: Herbicidal activity against glyphosate-resistant Conyza canadensis (horseweed) assessed as residual control at 420 g a.i./ha treated during autumn and spring measured 6 weeks after treatment. The class given is functional.
A short description of data set [16]: Half life of the compound under anaerobic condition.
Data set [17] is described as follows: Half life of the compound.
A short description of data set [18]: Half life of the compound under aerobic condition.
In data set [19] the test system is Erigeron canadensis. Description: Herbicidal activity against glyphosate-resistant Conyza canadensis (horseweed) assessed as residual control at 47 g a.i./ha treated during autumn and spring measured 8 weeks after treatment. Type of data set: functional.
For data set [20], the system named is Erigeron canadensis. Description: Herbicidal activity against glyphosate-resistant Conyza canadensis (horseweed) assessed as residual control at 47 g a.i./ha treated during autumn and spring measured 6 weeks after treatment. Type of data set: functional.
The subject of data set [21] is Erigeron canadensis. Description: Herbicidal activity against glyphosate-resistant Conyza canadensis (horseweed) assessed as residual control at 47 g a.i./ha treated during autumn and spring measured 4 weeks after treatment. The class given is functional.

Turning to `CNc1cnn(-c2cccc(C(F)(F)F)c2)c(=O)c1Cl` [NORFLURAZONE], the Activity entry in the data set with Gossypium hirsutum is reported as “Non-toxic”; in the data set with Erigeron canadensis [1], 100%; with Erigeron canadensis [2] it was 100%; with Erigeron canadensis [3], 100%.
With `CN(C)C(=O)Nc1ccc(Cl)c(Cl)c1` [DCMU], the Activity with Erigeron canadensis [4] is on record as 25%; in the data set on Erigeron canadensis [5], 99%; with Erigeron canadensis [6] it was 100%; in the data set with Gossypium hirsutum it was “Non-toxic”.
As for `C#CCN1C(=O)COc2cc(F)c(N3C(=O)C4=C(CCCC4)C3=O)cc21` [FLUMIOXAZIN], the Activity is recorded as 35% in the data set on Erigeron canadensis [7], 99% in the data set with Erigeron canadensis [8], 100% in the data set on Erigeron canadensis [9] and “Non-toxic” with Gossypium hirsutum.
Take `CN(C)C(=O)Nc1cccc(C(F)(F)F)c1` [FLUOMETURON]: the Activity is recorded as 80% in the data set on Erigeron canadensis [10], 99% in the data set on Erigeron canadensis [11], 98% in the data set with Erigeron canadensis [12] and “Non-toxic” in the data set on Gossypium hirsutum.
Take `CCOc1cc(Oc2ccc(C(F)(F)F)cc2Cl)ccc1[N+](=O)[O-]` [OXYFLUORFEN]: the Activity was 100% with Erigeron canadensis [13], “Non-toxic” in the data set on Gossypium hirsutum, 95% in the data set on Erigeron canadensis [14] and 99% in the data set with Erigeron canadensis [15].
Turning to `CSc1nc(NC(C)C)nc(NC(C)C)n1` [PROMETRYN], the Activity in the data set with Erigeron canadensis [4] is 20%; in the data set on Erigeron canadensis [5], 98%; in the data set with Erigeron canadensis [6], 100%; with Gossypium hirsutum, “Non-toxic”.
In general, half-life refers to the time needed for the level to fall by half in the phase considered. Read a low half-life as rapid decline. As for `COc1c(Cl)ccc(Cl)c1C(=O)O` [3,6 DICHLOROMETHOXYBENZOIC ACID], the half-life in [16] is 58 days; in data set [17], 7 days; in [18] it was 31 days.
Turning to `COc1cc(OC)nc(Sc2cccc(Cl)c2C(=O)O)n1` [PYRITHIOBAC], the Activity entry is given as “Non-toxic” with Gossypium hirsutum, 37% in the data set with Erigeron canadensis [19], 72% in the data set with Erigeron canadensis [20] and 60% in the data set on Erigeron canadensis [21].
